Experimental data taken from patent EP0675109A1, “N-SUBSTITUTED INDOLE DERIVATIVE” (TAISHO PHARMACEUTICAL CO. LTD, priority 1992, dated 1994).

Legend:
α1-adrenergic receptor = assay: α1-Adrenergic receptor binding test ([³H] prazosin displacement, rat brain membrane preparation); settings: 0.6 nM [³H] prazosin, 25 °C for 30 minutes, read-out: IC₅₀
Description: The α1-adrenergic receptor binding reaction was performed in accordance with the method of Greengrass and Bremner [Eur. J. Pharmacol., 55, 323 (1979)].
A rat was decapitated, and the brain was taken out and homogenized with 30 volumes of 50 Mm Tris hydrochloride (Ph 7.4). The homogenate was centrifuged at 1,000 x g for 5 minutes and the supernatant was further centrifuged at 48,000 x g for 20 minutes. The precipitate thus obtained was suspended in 50 mM Tris hydrochloride (pH 7.4) and recentrifuged at 48,000 x g for 20 minutes. The obtained precipitate was suspended in 50 mM Tris hydrochloride (pH 7.4) in such a manner as to give a concentration of 1.0 mg/ml protein. Thus an α1-adrenergic receptor preparation was obtained.
To 1.0 ml portions of this receptor preparation were added 0.6 nM [³H] prazosin and specimens at various concentrations, and the mixture was allowed to react at 25 °C for 30 minutes.
After the completion of the reaction, each reaction mixture was subjected to a rapid filtration through a glass filter (Whatman GF/B) and the filter was washed with 3 ml portions of 50 mM tris hydrochloride (pH 7.4) thrice. The radioactivity on the filter was measured with a liquid scintillation counter.
The difference between the radioactivity in the absence of any specimen and the radioactivity obtained in the presence of 10 µM of prazosin was referred to as the specific binding of the control. The ratio of the radioactivity obtained at the time of adding each specimen to the control radioactivity was determined and plotted against the specimen concentration. Then the fifty percent inhibitory concentration (IC₅₀) of each specimen was calculated by the curve fitting method with the use of a computer.

dog (beagle) = assay: Depressor activity test (telemetry of blood pressure and cardiac rate in conscious dogs after oral administration); type: in vivo
Description: The depressor activity test was performed in accordance with the method described in Journal of Physiology, 448, 307 - 320 (1992).
Under pentobarbital anesthesia, a catheter for detecting and transmitting the blood pressure was embedded in a branch of the femoral artery of a dog (weighing 10 kg, beagle, each group having 4 animals). When the animal restored from the postoperative aggression, a powder of the compound 1 encapsulated in a cellulose capsule (3 mg/kg) was orally administered to the animal, which had been fasted, without anesthesia or restriction.
Via the catheter embedded in the body of the beagle, the cardiac rate was measured from the blood pressure and the blood pressure pulse wave in accordance with the telemetry method. The blood pressure lowering effect attained the maximum level 30 minutes after the administration and the blood pressure was lowered by about 12 mmHg. This depressor activity persisted even 24 hours after the administration.

[1] = system: smooth muscle of the beagle prostate gland; assay: Urination disorder-relieving activity test (phenylephrine-induced contraction of isolated prostate smooth muscle, Magnus' method); type: cell-based, dog; settings: specimen 10⁻⁸ to 10⁻⁶ M for 15 minutes, against cumulative phenylephrine, calculated from two dose/reaction curves, read-out: IC₅₀
Description: The urination disorder-relieving activity test was performed in accordance with the method described in FEDERATION PROCEEDINGS, 45 (11), (1986). Under pentobarbital anesthesia, the prostate gland of a male dog (weighing 7 to 10 kg, beagle, each group having 3 animals) was taken out. Then a preparation of the smooth muscle of the beagle prostate gland thus taken out was prepared in a conventional manner and the isometric tensile strength was measured by Magnus' method. After incubating for 60 to 90 minutes, phenylephrine (10⁻⁷ to 10⁻⁴ M) was accumulatively administered to give a control dose/reaction curve. After washing away the phenylephrine, the preparation was treated with a specimen (10⁻⁸ to 10⁻⁶ M) for 15 minutes. In the presence of the specimen, phenylephrine (10⁻⁷ to 10⁻³ M) was accumulatively administered again and a dose/reaction curve was obtained in the same manner. Based on these two dose/reaction curves, the IC₅₀ of each specimen was calculated.

[2] = 3 mg/kg orally, time after the administration

Row | Structure (SMILES) | IC50 (α1-adrenergic receptor) | potency estimated from few doses [1] | other results
1 | CCC(=O)Cn1cc(CCN2CCN(c3ccc(F)cc3)CC2)c2ccccc21 [compound 8] | 5.13 nM |  | 
2 | CCCC(=O)Cn1cc(CCN2CCN(c3ccccc3OC)CC2)c2ccccc21 [compound 14] | 0.801 nM |  | 
3 | CCC(=O)Cn1cc(CCN2CCN(c3ccccc3OC)CC2)c2ccccc21 [compound 1, 3-[2-(4-(2-methoxyphenyl)piperadinyl)ethyl]-1-(2-oxobutyl)indole] | 7.75 nM | 1.4 nM | cardiac rate (dog (beagle); 3 mg/kg orally): somewhat lowered; blood pressure was lowered (maximum level) (dog (beagle); 3 mg/kg orally (powder in cellulose capsule), fasted, without anesthesia, 30 minutes after the administration): about 12 mmHg; persistence of depressor activity (dog (beagle); [2]): ≥ 24 h; time at which the blood pressure lowering effect attained the maximum level (dog (beagle); [2]): 30 min
4 | COc1ccccc1N1CCN(CCCNc2cc(=O)n(C)c(=O)n2C)CC1 [urapidil, reference compound] | 741 nM | 53.7 nM | 
5 | CCC(=O)Cn1cc(CCN2CCN(c3cccc(C)c3C)CC2)c2ccccc21 [compound 4] | 3.93 nM |  | 
6 | COc1ccccc1N1CCN(CCc2cn(CC(=O)C(C)C)c3ccccc23)CC1 [compound 15] | 0.679 nM |  | 
